Measurements reported in patent US20040023953A1, “Tricylic mercaptomethyl-substituted 2,3-dihydro-quinazolin-5-ones and 2,3-dihydro-benzo-[1,2,4]-thiadiazin-5,5-dioxides as matrix metalloproteinase (MMP) inhibitors” (priority 2000, published 2004).

Experiments:
Assay type in all cases: biochemical
MMP-2 (gelatinase) = biological target: T1, MMP-2 (gelatinase) (Homo sapiens, UniProt P08253); test: Quantitative fluorescence assay, inhibition of MMP-2; conditions: 10 μM inhibitor; no explicit Ki value since the dixon plot is non-linear
T1 construct: endogenous in cells; host or cells: human dermal fibroblasts (secreted into culture medium)
T1 sequence (P08253 110-660): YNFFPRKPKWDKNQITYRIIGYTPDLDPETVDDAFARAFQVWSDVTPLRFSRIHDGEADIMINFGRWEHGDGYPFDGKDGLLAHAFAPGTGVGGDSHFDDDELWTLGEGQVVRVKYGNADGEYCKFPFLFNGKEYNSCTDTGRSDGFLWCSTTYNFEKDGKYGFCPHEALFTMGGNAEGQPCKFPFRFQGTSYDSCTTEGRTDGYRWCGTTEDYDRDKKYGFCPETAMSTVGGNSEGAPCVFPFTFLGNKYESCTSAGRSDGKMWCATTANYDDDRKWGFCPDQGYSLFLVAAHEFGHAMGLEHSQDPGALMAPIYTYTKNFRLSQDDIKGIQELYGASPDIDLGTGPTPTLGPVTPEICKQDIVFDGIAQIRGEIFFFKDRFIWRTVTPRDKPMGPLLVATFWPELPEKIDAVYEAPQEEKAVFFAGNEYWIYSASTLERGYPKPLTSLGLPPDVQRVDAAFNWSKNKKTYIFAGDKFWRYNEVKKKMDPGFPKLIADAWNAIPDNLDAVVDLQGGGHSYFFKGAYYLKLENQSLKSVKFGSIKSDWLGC
Method: Inhibition of the Matrix Metalloproteinase-2 (MMP-2)
MMP-2 (gelatinase) is supplied by cultivated dermal fibroblasts to the culture medium in considerable amounts and is thus easily accessible.
For this purpose, human dermal fibroblasts are obtained according to established standard methods and cultivated and the cell-free culture supernatant is treated with trypsin. Trypsin is then inactivated with a specific inhibitor (TLCK) and active MMP-2 is partially purified by affinity chromatography on gelatin sepharose and subsequent gel filtration on sepharose. MMP-2 was identified and characterized by the availability of a commercial immunoassay.
(§1) Quantitative Fluorescence Assay for Matrix Metalloproteinases
(§2) The fluorescent group Mca is separated from the internal quencher Dpa by enzymatic cleavage of the synthetic substrate Mca-Pro-Leu-Gly-Leu-Dpa-Ala-Arg-NH2 using the respective collagenase. This is accompanied by a great increase in fluorescence in the measuring batch, which can be quantified using a fluorimeter (λex 328 nm, λem 393 nm) and proceeds linearly within the first few minutes. A certain specificity of the test to matrix metalloproteinases follows from the amino acid sequence-Pro-Leu-Gly-Leu-in the substrate, on the one hand, and from the select incubation conditions, on the other hand. Matrix metalloproteinases cleave the substrate at the Gly-Leu bond. The proteolytic residual activity of pre-incubated batches of enzyme and inhibitor is measured, the substrate and enzyme concentrations having been kept constant and the inhibitor concentration having been varied. Three series of measurements using a different substrate concentration were made for each tested inhibitor. The enzyme activity is calculated in fluorescence units per min. on the basis of the time-sensitive fluorescence increase. The Ki values were determined graphically according to the DIXON method (1953) by applying the reciprocal reaction rate 1/v (y axis) against inhibitor concentration (x axis).
(§3) 2 μl inhibitor dissolved in DMSO, or DMSO alone (non-inhibitory approach) 4 μl enzyme (MMP-2 or MMP-9 or catalytic domain of MMP-8)
(§4) 5 min. preliminary incubation of the enzyme-inhibitor mixture at room temperature while stirring start of the reaction with 10 μl substrate dissolved in DMSO recording of the time-sensitive fluorescence increase over a period of 2 min.
(§5) Inhibition of human MMPs by the inhibitors of general formulae Ia and Ib according to the invention

[1] = biological target: T2, recombinant catalytic domain of MMP-8 (Homo sapiens, UniProt P22894); test: Quantitative fluorescence assay, inhibition of catalytic domain of MMP-8; conditions: for MMP-8 inhibition with 10 μM: 10 μM inhibitor, no explicit Ki value since the dixon plot is non-linear
T2 construct: instead of the whole enzyme only its enzymatically active catalytic domain was cloned into E. coli; made in house; host or cells: E. coli
From the text: Cloning and Expression of the Catalytic MMP-8 Domain
The catalytic MMP-8 domain was used as another test enzyme because it has a high degree of stability and is also available as an active enzyme and therefore needs not be activated, which is in consideration as one of the most frequent causes of error since the mercury compounds used for the activation often interfere with the test system and/or the enzyme and in this way can falsify the measuring results. The cloning strategy was directed towards the circumstance that instead of the whole enzyme only its enzymatically active catalytic domain was cloned into E. coli.
The cloning and expression of the recombinant catalytic MMP-8 domain was carried out in accordance with the statements made by SCHNIERER et al. (Schnierer S., Kleine T., Gote T., Hillemann A., Knäuper V., Tschesche H.: The recombinant catalytic domain of human neutrophil collagenase lacks type I collagen substrate specificity. Biochem Biophys Res Comm (1993), vol. 191, No. 2, 319-326).
as §1, §2, §3, §4, §5

MMP-9 = biological target: T3, MMP-9 (Homo sapiens, UniProt P14780); test: Quantitative fluorescence assay, inhibition of MMP-9; conditions: for Ki: DIXON method; for MMP-9 inhibition with 10 μM: 10 μM inhibitor, no explicit Ki value since the dixon plot is non-linear
T3 construct: from tissue; host or cells: human buffy coat (blood leukocytes)
Method: Preparation of the Human Collagenase MMP-9
Native MMP-9 was obtained reproducibly and with good yield and purity from human Buffy Coat. For this purpose, Buffy Coat is brought to a final concentration of 0,4% using 10% (v/v) triton X-100, shaken on ice for 30 min. and then 1 vol. double binding buffer (40 mM Tris-HCl, pH 7.5, 10 mM CaCl2, 1 M NaCl, 0.2% (v/v) triton X-100) is added and shaking on ice is continued for another 30 min.
The solution is centrifuged off at 16,000 rpm on an SS-34 rotor at 4° C. for 15 min. and filtered on glass wool. The filtrate is batched with gelatin agarose equilibrated with binding buffer and shaken on ice for 1 hour.
The charged gelatin agarose is transferred to a column and rinsed in protein-free manner using at least 10 vol. binding buffer. The bound MMP-9 is eluted with 2 gel volumes binding buffer plus 5% (v/v) DMSO.
For an exchange of buffers and simultaneous separation of minor MMP-2 contaminations the eluate can be separated on sephadex G-75 by means of gel filtration. Buffer I (20 mM Tris-HCl, pH 7.5, 5 mM CaCl2, 100mM NaCl, 0.1% (v/v) triton X-100) is used for this purpose.
The resulting eluate contains MMP-9 in the three known configurations: monomer, homodimer, heterodimer. The purity of the enzyme is about 90%, the rest of the foreign proteins being fibronectin and extremely small amounts of TIMPs.
The latent enzyme is activated by incubation at 37° C. using 1/100 vol. trypsin (10 mg/ml), for 30-60 min. Trypsin is inhibited by adding 1 mM PMSF or with a specific inhibitor (TLCK).
as §1
as §2, with “A certain specificity of the test to matrix metalloproteinases follows from the amino acid sequence-Pro-Leu-Gly-Leu-in the substrate, on the one hand, and from the select incubation conditions, on the other hand. Matrix metalloproteinases cleave the substrate at the Gly-Leu bond.” left out, “Three series of measurements using a different substrate concentration were made for each tested inhibitor.” left out, “axis). […]” for “axis).”
5 min. preliminary incubation of the enzyme-inhibitor mixture at room temperature while stirring start of the reaction with 10 μl substrate dissolved in DMSO recording of the time-sensitive fluorescence increase over a period of 2 min. […]

[2] = biological target: T4, MT1-MMP (recombinant catalytic domain of MMP-14) (Homo sapiens, UniProt P50281); test: Quantitative fluorescence assay, inhibition of MT1-MMP; conditions: for Ki: DIXON method
T4 construct: recombinant catalytic domain of MMP-14
From the text: In particular when used as medicaments, specific inhibitors would only influence the desired target enzymes but not disturb the balanced interplay of the other MMPs, thus helping to avoid possible undesired side-effects.
as §1, §2, §5

T3 sequence (P14780 107-707 limits assumed): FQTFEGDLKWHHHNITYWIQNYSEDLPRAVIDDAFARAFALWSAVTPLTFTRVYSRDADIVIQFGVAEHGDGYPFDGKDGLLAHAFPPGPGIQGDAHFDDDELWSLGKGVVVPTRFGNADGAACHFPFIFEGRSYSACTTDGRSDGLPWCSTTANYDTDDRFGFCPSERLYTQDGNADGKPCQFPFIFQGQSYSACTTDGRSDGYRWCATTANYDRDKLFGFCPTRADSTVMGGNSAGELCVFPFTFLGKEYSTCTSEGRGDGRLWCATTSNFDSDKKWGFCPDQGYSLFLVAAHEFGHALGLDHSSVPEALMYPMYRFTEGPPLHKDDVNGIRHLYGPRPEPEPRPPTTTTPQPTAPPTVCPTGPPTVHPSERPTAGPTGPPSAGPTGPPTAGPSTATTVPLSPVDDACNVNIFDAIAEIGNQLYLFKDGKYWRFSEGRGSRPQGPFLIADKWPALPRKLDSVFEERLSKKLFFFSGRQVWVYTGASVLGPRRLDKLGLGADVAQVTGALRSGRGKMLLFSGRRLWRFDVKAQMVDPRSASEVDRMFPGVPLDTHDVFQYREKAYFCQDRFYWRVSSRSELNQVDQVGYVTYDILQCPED
T2 sequence (P22894 100-262 limits assumed): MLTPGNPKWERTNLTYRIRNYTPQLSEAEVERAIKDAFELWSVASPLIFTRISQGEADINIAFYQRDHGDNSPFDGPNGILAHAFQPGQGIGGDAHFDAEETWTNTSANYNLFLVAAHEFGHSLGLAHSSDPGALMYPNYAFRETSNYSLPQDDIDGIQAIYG

Compound	MMP-2 inhibition with 10 μM (MMP-2 (gelatinase))	MMP-8 inhibition with 10 μM [1]	Ki (MMP-9)	Ki [2]	MT1-MMP inhibition with 2.5 μM ([2]; 2.5 μM inhibitor, no explicit Ki value since the dixon plot is non-linear)	Ki ([1]; DIXON method)	MMP-9 inhibition with 10 μM (MMP-9)	MT1-MMP inhibition with 10 μM ([2]; 10 μM inhibitor, no explicit Ki value since the dixon plot is non-linear)
C[C@]1(CS)Cn2c(nc3ccccc3c2=O)S1 (racemic) [Example 2, (R,S)-2-mercaptomethyl-2-methyl-2,3-dihydro-5H-thiazolo[2,3-b]quinazoline-5-one]	50%	85%	1 µM	4 µM				
O=c1c2ccccc2nc2n1C[C@H](CS)S2 (racemic) [Example 1, (R,S)-2-Mercaptomethyl-2,3-dihydro-5H-thiazolo(2,3-b]-quinazoline-5-one]	70%	80%			50% inhi-			
O=C(O)c1ccc2c(=O)n3c(nc2c1)S[C@@H](CS)C3 (racemic) [Example 3, (R,S)-8-carboxy-2-mercaptomethyl-2,3-dihydro-5H-thiazolo [2,3-b]quinazoline-5-one]	25%		15 µM	21 µM		24 µM		
O=c1c2ccc(Cl)cc2nc2n1C[C@H](CS)S2 (racemic) [Example 5, (R,S)-8-chloro-2-mercaptomethyl-2,3-dihydro-5H-thiazolo(2,3-b]quinazoline-5-one]	80%	90%					85%	85%
O=c1c2ccccc2nc2n1[C@H](CS)CS2 (racemic) [Example 4, (R,S)-3-mercaptomethyl-2,3-dihydro-5H-thiazolo[2,3-b]quinazoline-5-one]	50%	25%		55 µM			75%	
